Data as given in paper PMC12677653, “Inhibition of Tumor Lipogenesis and Growth by Peptide‐Based Targeting of SREBP Activation” (Advanced Science, 2025).

Target: T1, binding of PCK1 to Insig1 (Homo sapiens, UniProt P35558)
T1 sequence (P35558 1-622): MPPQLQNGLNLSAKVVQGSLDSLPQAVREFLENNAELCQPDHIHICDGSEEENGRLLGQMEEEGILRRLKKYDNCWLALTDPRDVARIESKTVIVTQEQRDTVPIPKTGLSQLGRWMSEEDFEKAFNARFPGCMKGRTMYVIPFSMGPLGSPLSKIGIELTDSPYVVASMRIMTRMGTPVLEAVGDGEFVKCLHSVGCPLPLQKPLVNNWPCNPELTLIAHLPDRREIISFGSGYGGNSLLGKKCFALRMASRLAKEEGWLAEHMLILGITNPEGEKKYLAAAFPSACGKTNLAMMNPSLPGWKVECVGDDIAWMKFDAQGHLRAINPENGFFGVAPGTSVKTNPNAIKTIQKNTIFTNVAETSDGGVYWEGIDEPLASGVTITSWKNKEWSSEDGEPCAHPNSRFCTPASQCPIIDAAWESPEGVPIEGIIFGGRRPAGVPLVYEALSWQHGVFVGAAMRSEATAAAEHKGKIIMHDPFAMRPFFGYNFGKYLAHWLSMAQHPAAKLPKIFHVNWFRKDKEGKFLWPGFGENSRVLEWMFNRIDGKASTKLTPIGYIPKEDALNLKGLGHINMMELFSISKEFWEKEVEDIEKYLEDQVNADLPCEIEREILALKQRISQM
Test: Immunoprecipitation of IGF1-induced PCK1-Insig1 binding, Huh7
Format: cell-based
Design: expressed in transfected cells; host or cells: Huh7
Settings: Flag-PCK1-expressing Huh7 cells, peptide 15 µM 1 h before IGF1 100 ng/mL
Description: Figure 1 The Insig1/2 loop 1 peptide binds to S90‐phosphorylated PCK1 and blocks PCK1‐mediated SREBP activation and tumor cell proliferation. Immunoblotting analyses were performed using the indicated antibodies; representative results from three independent experiments are shown (IP, immunoprecipitation; WB, western blot). a) Huh7 cells expressing various Insig1 (top) or Insig2 (bottom) truncation mutants were treated with or without IGF1 (100 ng mL^−1) for 1 h. b,c) Biolayer interferometry assays (Sartorius Octet) were employed to measure the binding affinity of Insig1/2 loop 1 peptide to GST‐PCK1 or GST‐PCK1 pS90 proteins. […] Statistical significance was determined by one‐way analysis of variance (ANOVA). g) Following pretreatment with Insig1/2 loop 1 peptide (15 µM) and IGF1 stimulation (100 ng mL^−1, 8 h), Huh7 cells were subjected to immunofluorescence analysis (scale bar: 10 µm). h) Quantitative PCR analysis of SREBP1 target gene GPAM in Huh7 cells pretreated with Insig1/2 loop 1 peptide (15 µM) and stimulated with IGF1 (100 ng mL^−1) for 10 h. […] Statistical significance was determined by one‐way analysis of variance (ANOVA). i) Quantitative PCR analysis of SREBP1 target gene FASN in Huh7 cells pretreated with Insig1/2 loop 1 peptide (15 µM) and stimulated with IGF1 (100 ng mL^−1) for 10 h. […]

Sequence: RKKRRQRRRLYPCIDSHLGEPHKFKRE [Insig1/2 loop 1 peptide]
- IGF1-induced binding of PCK1 to Insig1: markedly inhibited
